Like-named read-outs stand apart in the source and are kept apart here.
Experiments:
[1] = tested on: wild-type zebrafish larvae; test: Maximum tolerated concentration (MTC) determination in zebrafish larvae; type: in vivo, Danio rerio
Experimental: Determination of maximum tolerated concentration was completed by placing 5 days post fertilization (dpf) wild-type zebrafish larvae in a 24 well plate at 6 fish per well, and one compound concentration per well. […] Death was determined by the absence of heartbeat. Additional endpoints were used to assess toxicity at non-lethal concentrations such as startle capacity (poke stimulus), abnormalities in swimming behavior (loss of dorsoventral balance), and gross morphological deformities (bent body). […] The MTC determination was used to select three doses of each compound (low, medium, high dose) to be used in behavioral assays.

[2] = target: T1, M1 muscarinic receptors expressed in CHO cells (Homo sapiens, UniProt P11229); test: [3H]-arachidonic acid release screen with and without ACh and modulator; type: cell-based; conditions: 10 μM modulator
T1 construct: expressed in transfected cells; host or cells: CHO (CHO-hM1, stably transfected)
T1 sequence (P11229 1-460): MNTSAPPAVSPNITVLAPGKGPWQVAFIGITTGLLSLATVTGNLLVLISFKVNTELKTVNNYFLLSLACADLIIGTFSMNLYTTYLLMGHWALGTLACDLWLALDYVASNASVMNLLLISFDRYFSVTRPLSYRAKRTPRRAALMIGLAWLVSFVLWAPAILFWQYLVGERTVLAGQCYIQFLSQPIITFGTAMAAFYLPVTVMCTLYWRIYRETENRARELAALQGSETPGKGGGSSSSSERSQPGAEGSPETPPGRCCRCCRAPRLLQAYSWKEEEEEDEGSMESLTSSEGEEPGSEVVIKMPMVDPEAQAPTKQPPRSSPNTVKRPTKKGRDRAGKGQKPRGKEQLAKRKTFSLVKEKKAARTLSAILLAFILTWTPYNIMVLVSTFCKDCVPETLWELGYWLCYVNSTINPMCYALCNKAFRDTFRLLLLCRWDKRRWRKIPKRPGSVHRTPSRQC
Experimental: CHO cells expressing human M1 muscarinic receptors were cultured at 37° C. in a 5% CO2 atmosphere in F12 medium supplemented with 5% fetal bovine serum, 100 units/mL penicillin, and 100 μg/mL streptomycin.
Measurement of [^3H]AA release was performed. Stably transfected CHO-hM1 or CHO-hM3 cells were seeded on 24-well plates (Greiner Bio-One GmbH, Frickenhausen, Germany) at a density of 5.0×10^4 cells/well in 0.5 ml of F-12 medium. Cells were incubated until they attached (approximately 3 h), followed by the addition of [^3H]AA to a final concentration of 0.05 μCi of [^3H]AA per well. The cells were then grown for 16 to 20 h before the assay was performed. [^3H]AA release was measured in Eagle's basal medium with 20 mM HEPES and 2 mg/ml fatty acid-free bovine serum albumin (EM-BSA). Cells were rinsed twice with EM-BSA, followed by the addition of EM-BSA media containing experimental agents and incubated for 1 h at 37° C. The assay was terminated by aspiration of the media, and the amount of [^3H]AA released was determined by liquid scintillation counting (Beckman-Coulter LS6500).
For some assays, pretreatment with phenoxybenzamine (POB) was employed, as indicated, to reduce the number of available receptors per cell. Stock POB was made up at 10 mM in ethanol and stored at −20° C. Each well was pretreated with 0.5 ml of the appropriate concentration in PBS with 1 mM CaCl2 and 1 mM MgCl2 (PBS++) for 30 min at 37° C., followed by 5 washes with PBS++. After pretreatment, the normal protocol was followed as above.
Tabulated [^3H]AA release data are represented as a fraction of maximal release in the presence of 100 μM ACh or as the fraction of release elicited by the appropriate concentration of ACh alone, as indicated dose-response curves were normalized to the maximal response of ACh without allosteric ligand. Some response curves were analyzed using the empirical four-parameter equation: […]
Disintegration per minute (DPM) values for a single compound were obtained in triplicate, and each compound was evaluated on three separate 24-well plates. The mean values for each condition from each of the three 24-well plates were used for the statistical analysis. The baseline mean was subtracted from each value, then normalized to the mean response produced by 100 μM ACh (set at 1.0). Statistical analyses were completed on the normalized values via one-way repeated measures ANOVA with Tukey's post hoc test. Statistically significant differences are noted as follows: *, p<0.05; **, p<0.01; ***, p<0.001.

[3] = tested on: wild-type zebrafish larvae; test: General locomotor assay in zebrafish larvae (locomotor activity, repetitive behaviors); type: in vivo, Danio rerio; conditions: for response vs control in vivo at 10 µM: Danio rerio, Table 5, 10 μM concentration, N = 12
Experimental: Five days post fertilization (dpf) zebrafish larvae were exposed to a range of nonlethal concentrations of the compounds in a 24-well plate with appropriate controls. The movement of each larval zebrafish was monitored with the Noldus behavior recording system (Noldus Information Technology, Leesburg VA) and quantified using EthoVision® XT 15 software (Noldus Information Technology, Leesburg VA). The plate was immediately placed in the incubator for a 30-minute exposure period. After 30 minutes, the plate was transferred to the Noldus system and swimming behavior was recorded in 100% light for 30 minutes to measure spontaneous swimming behavior. The light was switched off for 10 minutes (dark period) and then switched on for 10 minutes (light period), which was then repeated for two additional cycles. In total, the larvae were exposed to three cycles of alternating 10-minute dark and light periods (100% darkness-to-100% light). […]
All data for exposure and the behavioral end points were analyzed by one-way ANOVA (factor: drug conc) followed by a Dunnett's multiple comparisons test for post hoc significance between drug concentration and control group. Statistically significant differences are noted as follows: *, p<0.05; **, p<0.01; ***, p<0.001.

[4] = after 24-hour exposure, Table 3
[5] = after 24-hour exposure in separate experiments, Table 5
[6] = read-out: Variance of Turn Angle

Row | SMILES | Maximum Tolerated Concentration [1, 4] [µM] | Ratio of response of ACh with modulator to response of ACh alone, 0.1 μM ACh ([2]; Table 1) | Ratio of response of ACh with modulator to response of ACh alone, 100 μM ACh ([2]; Table 1) | Stimulation of [3H]AA release, No ACh (fraction of stimulation above the control) ([2]; Table 1) | Maximum Tolerated Concentration [1, 5] [µM] | response vs control in vivo at 10 µM ([3]; read-out: Angular Velocity) [%] | response vs control in vivo at 10 µM ([3]; read-out: Total Distance Moved) [%] | response vs control in vivo at 10 µM [3, 6] [%] | Ratio of response of ACh with modulator to response of ACh alone, 0.1 μM ACh ([2]; Table 4, N = 4-5) | Ratio of response of ACh with modulator to response of ACh alone, 100 μM ACh ([2]; Table 4, N = 4-5) | Stimulation of [3H]AA release, No ACh (fraction of stimulation above the control) ([2]; Table 4, N = 4-5) | Effect on locomotor activity, angular velocity and turn angle (in words) ([3]; spontaneous swimming period)
1 | COc1cc(CN2C(=O)C(=O)c3ccccc32)cc(OC)c1OC [Compound 8k, 1-(3,4,5-trimethoxybenzyl)indoline-2,3-dione] | 30 | 1.37 ± 0.08 | 0.83 ± 0.01 | 0.03 ± 0.00 |  |  |  |  |  |  |  | 
2 | O=C1C(=O)N(Cc2ccc(O)cc2)c2ccccc21 [Compound 10, 1-(4-hydroxybenzyl)indoline-2,3-dione] | 10 | 1.60 ± 0.10 | 0.92 ± 0.06 | 0.01 ± 0.01 |  |  |  |  |  |  |  | 
3 | CCCCc1oc2ccc(NS(C)(=O)=O)cc2c1C(=O)c1ccc(OCCCN(CCCC)CCCC)cc1 [Dronedarone, reference compound] | 10 | 0.25 ± 0.05 | 0.75 ± 0.07 | 0.08 ± 0.01 |  |  |  |  |  |  |  | 
4 | COc1c(I)cc(CN2C(=O)C(=O)c3cc(OC(F)(F)F)ccc32)cc1I [GK-1-44] |  |  |  |  | 10 | 114 ± 19.2 | 78.5 ± 11.1 | 105 ± 10.6 | 2.47 ± 0.22 | 1.67 ± 0.11 | 0.37 ± 0.04 | 
5 | COc1c(Br)cc(CN2C(=O)C(=O)c3cc(OC(F)(F)F)ccc32)cc1Br [GK-1-48] |  |  |  |  | 3 | 134 ± 16.5 | 80.1 ± 11.7 | 109 ± 11.9 | 3.04 ± 0.47 | 1.66 ± 0.07 | 0.15 ± 0.01 | significant increase in angular velocity
6 | COc1c(Br)cc(Cn2cc(C(=O)O)c(=O)c3ccccc32)cc1Br [GK-1-50] |  |  |  |  | 10 | 124 ± 21.8 | 87.9 ± 10.7 | 107 ± 11.2 | 2.77 ± 0.49 | 1.11 ± 0.12 | 0.47 ± 0.10 | 

Reference: patent publication US20260109674A1, “ALLOSTERIC MODULATION OF MUSCARINIC ACETYLCHOLINE RECEPTOR EFFICACY” (The University of Toledo, priority 2022, published 2026)
